In ChEMBL document CHEMBL3390848, “Affinity selection and sequence-activity relationships of HIV-1 membrane fusion inhibitors directed at the drug-resistant variants” (Medchemcomm, 2010):
pEC50: −log10 of the molar value. Residues, ends and D or L forms follow the SMILES beside them.

Assays:
[1] = tested on: Human immunodeficiency virus 1; test: Binding affinity to HIV1 His-tagged N-terminal heptad repeat of envelope glycoprotein gp41 assessed as recovery of N36-drug complex at 0.6 uM after 2 hrs by LC-MS analysis
[2] = tested on: Envelope glycoprotein gp160 (Human immunodeficiency virus 1), Q72502 [V38A]; test: Binding affinity to HIV1 His-tagged N-terminal heptad repeat of envelope glycoprotein gp41 assessed as recovery of N36 V38A mutant-drug complex after 2 hrs by LC-MS analysis; design: concentration or dose not given beside the values
[3] = tested on: Human immunodeficiency virus 1; test: Thermal stability of HIV1 envelope glycoprotein gp41 His-tagged N-terminal heptad repeat N36-drug complex assessed as thermal unfolding transition state by measuring molar ellipticity at 4 to 90 degC by circular dichroic spectra analysis
[4] = tested on: Human immunodeficiency virus 1; test: Binding affinity to HIV1 His-tagged N-terminal heptad repeat of envelope glycoprotein gp41 assessed as recovery of N36 N43D mutant-drug complex after 2 hrs by LC-MS analysis; design: concentration or dose not given beside the values
[5] = tested on: Human immunodeficiency virus 1; test: Binding affinity to HIV1 His-tagged N-terminal heptad repeat of envelope glycoprotein gp41 assessed as recovery of N36-drug complex at 6 uM after 2 hrs by LC-MS analysis
[6] = tested on: Human immunodeficiency virus 1; test: Binding affinity to HIV1 His-tagged N-terminal heptad repeat of envelope glycoprotein gp41 assessed as recovery of N36-drug complex at 1 uM after 2 hrs by LC-MS analysis
[7] = tested on: Human immunodeficiency virus 1; test: Antiviral activity against HIV1 NL4-3 harboring gp41 D36G mutant infected in human HeLa cells expressing CD4-LTR-beta-gal assessed as inhibition of viral replication after 48 hrs by MAGI assay; assay type: functional, organism-based
[8] = tested on: Human immunodeficiency virus 1; test: Binding affinity to HIV1 His-tagged N-terminal heptad repeat of envelope glycoprotein gp41 assessed as recovery of N36-drug complex at 10 uM after 2 hrs by LC-MS analysis
[9] = tested on: Human immunodeficiency virus 1; test: Thermal stability of HIV1 envelope glycoprotein gp41 His-tagged N-terminal heptad repeat N36 N43D mutant-drug complex assessed as thermal unfolding transition state by measuring molar ellipticity at 4 to 90 degC by circular dichroic spectra analysis
[10] = tested on: Envelope glycoprotein gp160 (Human immunodeficiency virus 1), Q72502 [V38A]; test: Thermal stability of HIV1 envelope glycoprotein gp41 His-tagged N-terminal heptad repeat N36 V38A mutant-drug complex assessed as thermal unfolding transition state by measuring molar ellipticity at 4 to 90 degC by circular dichroic spectra analysis
[11] = tested on: Human immunodeficiency virus 1; test: Thermal stability of HIV1 envelope glycoprotein gp41 His-tagged N-terminal heptad repeat N54 N43D mutant-drug complex assessed as thermal unfolding transition state by measuring molar ellipticity at 4 to 90 degC by circular dichroic spectra analysis
[12] = tested on: Human immunodeficiency virus 1; test: Thermal stability of HIV1 envelope glycoprotein gp41 His-tagged N-terminal heptad repeat N54-drug complex assessed as thermal unfolding transition state by measuring molar ellipticity at 4 to 90 degC by circular dichroic spectra analysis
[13] = tested on: Envelope glycoprotein gp160 (Human immunodeficiency virus 1), Q72502 [V38A]; test: Thermal stability of HIV1 envelope glycoprotein gp41 His-tagged N-terminal heptad repeat N54 V38A mutant-drug complex assessed as thermal unfolding transition state by measuring molar ellipticity at 4 to 90 degC by circular dichroic spectra analysis
[14] = tested on: Envelope glycoprotein gp160 (Human immunodeficiency virus 1), Q72502 [V38A]; test: Binding affinity to HIV1 His-tagged N-terminal heptad repeat of envelope glycoprotein gp41 assessed as recovery of N54 V38A mutant-drug complex after 2 hrs by LC-MS analysis; design: concentration or dose not given beside the values
[15] = tested on: Human immunodeficiency virus 1; test: Binding affinity to HIV1 His-tagged N-terminal heptad repeat of envelope glycoprotein gp41 assessed as recovery of N54-drug complex after 2 hrs by LC-MS analysis; design: concentration or dose not given beside the values
[16] = tested on: Human immunodeficiency virus 1; test: Binding affinity to HIV1 His-tagged N-terminal heptad repeat of envelope glycoprotein gp41 assessed as recovery of N54 N43D mutant-drug complex after 2 hrs by LC-MS analysis; design: concentration or dose not given beside the values

CC[C@H](C)[C@H](NC(=O)[C@H](CC(C)C)NC(=O)[C@H](CCC(=O)O)NC(=O)[C@H](CCC(=O)O)NC(=O)[C@@H](NC(=O)[C@H](CCCCN)NC(=O)[C@H](CCCCN)NC(=O)[C@@H](NC(=O)[C@H](Cc1ccc(O)cc1)NC(=O)[C@H](CCC(=O)O)NC(=O)[C@H](CCC(=O)O)NC(=O)[C@@H](NC(=O)[C@H](CCCCN)NC(=O)[C@H](CCCCN)NC(=O)[C@H](CC(=O)O)NC(=O)[C@H](Cc1c[nH]c2ccccc12)NC(=O)[C@H](CCC(=O)O)NC(=O)[C@H](CCC(=O)O)NC(=O)[C@H](Cc1c[nH]c2ccccc12)NC(C)=O)[C@@H](C)CC)[C@@H](C)O)[C@@H](C)CC)C(=O)N[C@@H](CCCCN)C(=O)N[C@@H](CCCCN)C(=O)N[C@@H](C)C(=O)N[C@@H](CCC(=O)O)C(=O)N[C@@H](CCC(=O)O)C(=O)N[C@@H](CCC(N)=O)C(=O)N[C@@H](CCC(N)=O)C(=O)N[C@@H](CCCCN)C(=O)N[C@@H](CCCCN)C(=O)N[C@@H](CC(N)=O)C(=O)N[C@@H](CCC(=O)O)C(=O)N[C@@H](CCC(=O)O)C(=O)N[C@@H](CCC(=O)O)C(=O)N[C@@H](CC(C)C)C(=O)N[C@@H](CCCCN)C(=O)N[C@@H](CCCCN)C(N)=O (Ac-WEEWDKKIEEYTKKIEELIKKAEEQQKKNEEELKK-NH2)
Activity [1]: 5.3% | Activity [2]: 11.4% | Tm [3]: 86.4 °C | Activity [4]: 12.9% | Activity [5]: 22.5% | Activity [6]: 11.5% | pEC50 [7]: 9.70 | Activity [8]: 30.7% | Tm [9]: 74.4 °C | Tm [10]: 76.1 °C

CC[C@H](C)[C@H](NC(=O)[C@H](CCCCN)NC(=O)[C@H](CCCCN)NC(=O)[C@H](CC(=O)O)NC(=O)[C@H](Cc1c[nH]c2ccccc12)NC(=O)[C@H](CCC(=O)O)NC(=O)[C@H](CCC(=O)O)NC(=O)[C@H](Cc1c[nH]c2ccccc12)NC(C)=O)C(=O)N[C@@H](CCC(=O)O)C(=O)N[C@@H](CCC(=O)O)C(=O)N[C@@H](Cc1ccc(O)cc1)C(=O)N[C@H](C(=O)N[C@@H](CCCCN)C(=O)N[C@@H](CCCCN)C(=O)N[C@H](C(=O)N[C@@H](CCC(=O)O)C(=O)N[C@@H](CCC(=O)O)C(=O)N[C@@H](CC(C)C)C(=O)N[C@H](C(=O)N[C@@H](CCCCN)C(=O)N[C@@H](CCCCN)C(=O)N[C@H](C(=O)N[C@@H](CCC(=O)O)C(=O)N[C@@H](CCC(=O)O)C(=O)N[C@@H](CCC(N)=O)C(=O)N[C@@H](CCC(N)=O)C(=O)N[C@@H](CCCCN)C(=O)N[C@@H](CCCCN)C(=O)N[C@@H](CC(N)=O)C(=O)N[C@@H](CCC(=O)O)C(=O)N[C@@H](CCC(=O)O)C(=O)N[C@@H](CCC(=O)O)C(=O)N[C@@H](CC(C)C)C(=O)N[C@@H](CCCCN)C(=O)N[C@@H](CCCCN)C(N)=O)[C@@H](C)O)[C@@H](C)CC)[C@@H](C)CC)[C@@H](C)O (Ac-WEEWDKKIEEYTKKIEELIKKTEEQQKKNEEELKK-NH2)
Activity [1]: 5.7% | Activity [2]: 10.8% | Tm [3]: 79.7 °C | Activity [4]: 9.4% | Activity [5]: 12.8% | Activity [6]: 11.7% | pEC50 [7]: 9.10 | Activity [8]: 9% | Tm [9]: 67.5 °C | Tm [10]: 70.4 °C

CC[C@H](C)[C@H](NC(=O)[C@H](CC(C)C)NC(=O)[C@H](CCC(=O)O)NC(=O)[C@H](CCC(=O)O)NC(=O)[C@@H](NC(=O)[C@H](CCCCN)NC(=O)[C@H](CCCCN)NC(=O)[C@@H](NC(=O)[C@H](Cc1ccc(O)cc1)NC(=O)[C@H](CCC(=O)O)NC(=O)[C@H](CCC(=O)O)NC(=O)[C@@H](NC(=O)[C@H](CCCCN)NC(=O)[C@H](CCCCN)NC(=O)[C@H](CC(=O)O)NC(=O)[C@H](Cc1c[nH]c2ccccc12)NC(=O)[C@H](CCC(=O)O)NC(=O)[C@H](CCC(=O)O)NC(=O)[C@H](Cc1c[nH]c2ccccc12)NC(C)=O)[C@@H](C)CC)[C@@H](C)O)[C@@H](C)CC)C(=O)N[C@@H](CCCCN)C(=O)N[C@@H](CCCCN)C(=O)N[C@@H](CC(C)C)C(=O)N[C@@H](CCC(=O)O)C(=O)N[C@@H](CCC(=O)O)C(=O)N[C@@H](CCC(N)=O)C(=O)N[C@@H](CCC(N)=O)C(=O)N[C@@H](CCCCN)C(=O)N[C@@H](CCCCN)C(=O)N[C@@H](CC(N)=O)C(=O)N[C@@H](CCC(=O)O)C(=O)N[C@@H](CCC(=O)O)C(=O)N[C@@H](CCC(=O)O)C(=O)N[C@@H](CC(C)C)C(=O)N[C@@H](CCCCN)C(=O)N[C@@H](CCCCN)C(N)=O (Ac-WEEWDKKIEEYTKKIEELIKKLEEQQKKNEEELKK-NH2)
Activity [1]: 6.9% | Activity [2]: 10.3% | Tm [3]: 83.2 °C | Activity [4]: 12.9% | Activity [5]: 7.6% | Activity [6]: 11.3% | pEC50 [7]: 9.70 | Activity [8]: 4.7% | Tm [9]: 80 °C | Tm [10]: 75 °C

CC[C@H](C)[C@H](NC(=O)[C@H](CCCCN)NC(=O)[C@H](CCCCN)NC(=O)[C@H](CC(=O)O)NC(=O)[C@H](Cc1c[nH]c2ccccc12)NC(=O)[C@H](CCC(=O)O)NC(=O)[C@H](CCC(=O)O)NC(=O)[C@H](Cc1c[nH]c2ccccc12)NC(C)=O)C(=O)N[C@@H](CCC(=O)O)C(=O)N[C@@H](CCC(=O)O)C(=O)N[C@@H](Cc1ccc(O)cc1)C(=O)N[C@H](C(=O)N[C@@H](CCCCN)C(=O)N[C@@H](CCCCN)C(=O)N[C@H](C(=O)N[C@@H](CCC(=O)O)C(=O)N[C@@H](CCC(=O)O)C(=O)N[C@@H](CC(C)C)C(=O)N[C@H](C(=O)N[C@@H](CCCCN)C(=O)N[C@@H](CCCCN)C(=O)N1CCC[C@H]1C(=O)N[C@@H](CCC(=O)O)C(=O)N[C@@H](CCC(=O)O)C(=O)N[C@@H](CCC(N)=O)C(=O)N[C@@H](CCC(N)=O)C(=O)N[C@@H](CCCCN)C(=O)N[C@@H](CCCCN)C(=O)N[C@@H](CC(N)=O)C(=O)N[C@@H](CCC(=O)O)C(=O)N[C@@H](CCC(=O)O)C(=O)N[C@@H](CCC(=O)O)C(=O)N[C@@H](CC(C)C)C(=O)N[C@@H](CCCCN)C(=O)N[C@@H](CCCCN)C(N)=O)[C@@H](C)CC)[C@@H](C)CC)[C@@H](C)O (Ac-WEEWDKKIEEYTKKIEELIKKPEEQQKKNEEELKK-NH2)
Activity [1]: 4.5% | Activity [2]: 0.4% | Tm [3]: 56.1 °C | Activity [4]: 0.3% | Activity [5]: 0.2% | Activity [6]: 0.1% | pEC50 [7]: 7.46 | Activity [8]: 0.4% | Tm [9]: 55.6 °C | Tm [10]: 56.3 °C

CC[C@H](C)[C@H](NC(=O)[C@H](CC(C)C)NC(=O)[C@H](CCC(=O)O)NC(=O)[C@H](CCC(=O)O)NC(=O)[C@@H](NC(=O)[C@H](CC(C)C)NC(=O)[C@H](CO)NC(=O)[C@@H](NC(=O)[C@H](Cc1ccc(O)cc1)NC(C)=O)[C@@H](C)O)[C@@H](C)CC)C(=O)N[C@@H](CCCCN)C(=O)N[C@@H](CCCCN)C(=O)N[C@H](C(=O)N[C@@H](CCC(=O)O)C(=O)N[C@@H](CCC(=O)O)C(=O)N[C@@H](CCC(N)=O)C(=O)N[C@@H](CCC(N)=O)C(=O)N[C@@H](CCCCN)C(=O)N[C@@H](CCCCN)C(=O)N[C@@H](CC(N)=O)C(=O)N[C@@H](CCC(=O)O)C(=O)N[C@@H](CCC(=O)O)C(=O)N[C@@H](CCC(=O)O)C(=O)N[C@@H](CC(C)C)C(=O)N[C@@H](CCCCN)C(=O)N[C@@H](CCCCN)C(=O)N[C@@H](CC(C)C)C(=O)N[C@@H](CCC(=O)O)C(=O)N[C@@H](CCC(=O)O)C(=O)N[C@@H](Cc1c[nH]c2ccccc12)C(=O)N[C@@H](C)C(=O)N[C@@H](CCCCN)C(=O)N[C@@H](CCCCN)C(=O)N[C@@H](Cc1c[nH]c2ccccc12)C(=O)N[C@@H](CC(N)=O)C(=O)N[C@@H](Cc1c[nH]c2ccccc12)C(=O)N[C@@H](Cc1ccccc1)C(N)=O)[C@@H](C)O (Ac-YTSLIEELIKKTEEQQKKNEEELKKLEEWAKKWNWF-NH2)
Tm [11]: 62.4 °C | Tm [12]: 75.9 °C | Tm [13]: 57.8 °C | pEC50 [7]: 9.40 | Activity [14]: 8.1% | Activity [15]: 10% | Activity [16]: 6.1%
